Here are results for eight molecules from patent US9266908B2, “Inhibitors of arginase and their therapeutic applications” (MARS, INCORPORATED, priority 2011, dated 2016).

Test [1] relates to experimental autoimmune encephalomyelitis (EAE). To be noted: animals undergoing EAE; cited from earlier work.
The target in test [2] is T1, human-Arginase-1 (Homo sapiens, UniProt P05089).
T1 construct: expressed in transfected cells; host or cells: CHOK cells
T1 sequence (P05089 1-322): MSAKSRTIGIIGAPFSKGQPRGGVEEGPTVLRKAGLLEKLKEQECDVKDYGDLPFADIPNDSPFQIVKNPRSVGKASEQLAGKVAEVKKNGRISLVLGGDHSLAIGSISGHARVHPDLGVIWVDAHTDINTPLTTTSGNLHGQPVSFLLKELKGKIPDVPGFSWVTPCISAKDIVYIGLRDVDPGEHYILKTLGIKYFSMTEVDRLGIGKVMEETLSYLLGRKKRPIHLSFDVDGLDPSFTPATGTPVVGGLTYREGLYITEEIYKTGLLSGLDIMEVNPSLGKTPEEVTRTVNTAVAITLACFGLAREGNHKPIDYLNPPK
The test can be described thus: Urea production in CHOK cells stably transfected with human-Arginase-1. It counts as cell-based. Conditions: IC50 class, 5 mM arginine, 24 hours, read-out: CHOK Cell.

The target in test [3] is T2, human arginase I (ARG I) (Homo sapiens, UniProt P05089).
T2 sequence (P05089 1-322): T1 sequence (P05089 1-322)
The test is described as follows: Inhibition of arginase I, spectrophotometric urea assay at 530 nm.
Description: (§1) Inhibition of arginase I (ARG I) and arginase II (ARG II) by the inventive compounds is followed spectrophotometrically at 530 nm. […] Solutions of arginase I and II are prepared in 100 mM sodium phosphate buffer, pH 7.4 containing 1 mg/ml of OVA to give an arginase stock solution at a final concentration of 100 ng/ml.
(§2) To each well of a 96-well microtiter plate is add 40 μl of enzyme, 10 μl of an inventive compound and 10 μl of enzyme substrate (L-arginine+ manganese sulfate). For wells that are used as positive controls, only the enzyme and its substrate are added, while wells used as negative controls contain only manganese sulfate.
(§3) After incubating the microtiter plate at 37° C. for 60 minutes, 150 μl of a urea reagent obtained by combining equal proportions (1:1) of reagents A and B is added to each well of the microtiter plate to stop the reaction. The urea reagent is made just before use by combining Reagent A (10 mM o-phthaldialdehyde, and 0.4% polyoxyethylene (23) lauryl ether (w/v) in 1.8 M sulfuric acid) with Reagent B (1.3 mM primaquine diphosphate, 0.4% polyoxyethylene (23) lauryl ether (w/v), 130 mM boric acid in 3.6 M sulfuric acid). After quenching the reaction mixture, the microtiter plate is allowed to stand for an additional 10 minutes at room temperature to allow color development. […] The normalized OD is then used to generate a dose-response curve by plotting the normalized OD values against log [concentration] and using regression analysis to compute the IC50 values.

Test [4] concerns the target T3, arginase II (ARG II) (Homo sapiens, UniProt P78540).
T3 sequence (P78540 23-354): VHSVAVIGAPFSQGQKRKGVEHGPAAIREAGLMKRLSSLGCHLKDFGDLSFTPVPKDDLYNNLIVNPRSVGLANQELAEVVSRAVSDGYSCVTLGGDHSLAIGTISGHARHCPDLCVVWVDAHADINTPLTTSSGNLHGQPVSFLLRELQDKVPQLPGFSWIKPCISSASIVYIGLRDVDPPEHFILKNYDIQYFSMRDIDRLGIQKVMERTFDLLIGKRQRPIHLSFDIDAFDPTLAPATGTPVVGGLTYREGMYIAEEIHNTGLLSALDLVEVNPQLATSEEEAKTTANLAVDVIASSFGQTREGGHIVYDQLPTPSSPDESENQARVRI
The test can be described thus: Inhibition of arginase II, spectrophotometric urea assay at 530 nm.
Description: as §1, §2, §3

Test [5] has as its system bacterial arginase. Conditions: cited from earlier work.
The test system of test [6] is murine chronic model. To be noted: cited from earlier work.
In test [7] the test system is spontaneously hypertensive animals. Conditions: cited from earlier work.

As to `NC(CCCCB(O)O)C(=O)O` (stereo not drawn) [ABH, amino-6-boronohexanoic acid], the “form of EAE developed versus control animals” value in test [1] is on record as “much milder form of EAE”.

On to `NC(CCCCB(O)O)(C(=O)O)C1CC2CCC(C1)N2Cc1ccc(F)c(F)c1` (stereo not drawn) [Example 63, 2-amino-6-borono-2-(8-(3,4-difluorobenzyl)-8-azabicyclo[3.2.1]octan-3-yl)hexanoic acid], for which the IC50 is 1000 to 25000 nM in test [2], 0.1 to 25 nM in test [3] and 26 to 100 nM in test [4].

`NC(CCCCB(O)O)(C(=O)O)C1CC2CCC(C1)N2Cc1ccc(OC(F)(F)F)cc1` (stereo not drawn) [Example 64, 2-amino-6-borono-2-(8-(4-(trifluoromethoxy)benzyl)-8-azabicyclo[3.2.1]octan-3-yl)hexanoic acid]: the IC50 in test [2] was in the range of 26000 to 100000 nM; in test [3] it was 26 to 100 nM; in test [4], 26 to 100 nM.

For `CCN(CCO)CC[C@](N)(CCCCB(O)O)C(=O)O` [Example 67, (R)-2-amino-6-borono-2-(2-(ethyl(2-hydroxyethyl)amino)ethyl)hexanoic acid], the IC50 lay in the range of 1000 to 25000 nM in test [2], 501 to 1500 nM in test [3] and 101 to 500 nM in test [4].

Take `CCN(CC)CC[C@](N)(CCCCB(O)O)C(=O)O` [Example 68, (R)-2-amino-6-borono-2-(2-(diethylamino)ethyl)hexanoic acid]: the results for the IC50 in test [2], in test [3] and in test [4] were 1000 to 25000 nM, 101 to 500 nM and 101 to 500 nM, respectively.

For the molecule `NC(=NCCC[C@H](N)C(=O)O)NO` [NOHA], in test [5], the “CD3 expression on T-cells” value is recorded as “reestablished” and the “production of NO by macrophages” value is “enhanced”.

Consider `N[C@@H](CSCCB(O)O)C(=O)O` [S-(2-boronoethyl)-L-cysteine], for which, in test [6], the “methacholine induced responsiveness of the central airways” value is listed as “attenuated”.

Take `N=C(NO)NCC[C@H](N)C(=O)O` [nor-NOHA, N^ω-hydroxy-nor-L-arginine]: in test [7], the blood pressure entry is recorded as “lowered”; the “vascular response of resistance vessels to blood flow and pressure” value is “improved”.
